The results in this text go back to paper PMC9026348, “Investigation of Direct and Retro Chromone-2-Carboxamides Based Analogs of Pseudomonas aeruginosa Quorum Sensing Signal as New Anti-Biofilm Agents” (Pharmaceuticals, 2022).

Structures are written as SMILES.

The subject of data set [1] is P. aeruginosa PAO1 biofilms. Description: Anti-biofilm assay, CFU count of adherent cells. The format is cell-based, Pseudomonas aeruginosa PAO1. The conditions noted are these: Pseudomonas aeruginosa, PAO1, 48 h, relative to untreated control, mean ± SD of 3 independent experiments. On the procedure: The effect of all compounds was evaluated on PAO1 biofilms, grown in 24-well microplates. The antibiofilm assay used in this study is based on a low nutritive culture medium, a rather weak inoculum (10^2 CFU/mL), and a regular renewal of the culture medium (at 2, 4, 6, 20, and 24 h), in order to promote the growth of adhered cells as biofilm, instead of the growth and/or sedimentation of planktonic cells. Since the QS systems are involved in early steps of biofilm formation, compounds were added at t0. After incubation, viable cells were quantified by CFU plate counts.
The rather low concentration of 50 µM used was set up according to detected concentrations of QS molecules in CF patients’ lungs. […] For all compounds, MICs/MBCs were higher than 500 µM. To be considered active, a threshold of 50% inhibition, relative to the untreated control, was applied.
Pseudomonas aeruginosa PAO1 was obtained from the Institute Pasteur Collection (CIP 104116, Paris, France), frozen and kept at -80 °C in a 20% (v/v) glycerol stock solution. Before each experiment, two successive subcultures were prepared on trypticase soy agar and incubated for 24 h under aerobic conditions at 37 °C. Before each experiment, bacterial suspensions of 10^8 CFU/mL were prepared by adjusting OD at 640 nm to 0.150.
The bacterial enumerations were done on trypticase soy agar. The minimum biofilm broth used for biofilm formation (MBB) was prepared in sterile distilled water (SDW) and was composed of MgSO4·7H2O (0.02 g/L), FeSO4·7H2O (0.5 mg/L), Na2HPO4 (1.25 g/L), KH2PO4 (0.5 g/L), (NH4)2SO4 (0.1 g/L), and glucose (0.05 g/L) from Merck-Sigma (France).
The enumeration of adhered bacteria was carried-out according to Campanac et al. with some modifications. P. aeruginosa biofilms were grown in a 24-wells microtiter plate for 48 h. The culture medium was composed of BBM 2X (1.0 mL) and 1.0 mL of a 10^−4 M solution of tested compound dissolved in SDW (final concentration 50 µM). After inoculation with 100 µL of a 10^2 CFU/mL bacterial suspension of P. aeruginosa PAO1 (final inoculum 10 CFU/well), the microtiter plate was incubated à 37 °C. After 2 h, 4 h, 6 h, 20 h and 24 h of incubation, each well was emptied, rinsed twice with SDW, and the culture medium was renewed. After 48 h of culture, the biofilm was rinsed twice with 2.0 mL SDW. The bottom of each well was scraped with a sterile spatula and suspended in 1.0 mL of SDW. The content of each well was diluted by serial dilutions in test tubes. After inclusion of 0.9 mL of each dilution in trypticase soy agar, Petri dishes were incubated for 48 h at 37 °C. The number of colony forming units (CFUs) was counted and the inhibition percentage calculated using the following formula: Inhibition(%)=Adhered cellsControl(CFU/mL)−Adhered cellsSample(CFU/mL) /Adhered cellsControl×100

A word on the inhibition: it is the percentage by which the read-out fell short of the control. Higher therefore signals a strong effect. A word on the melting point: it is the temperature of the solid-liquid transition. For `O=C(Nc1cc(=O)c2ccccc2o1)c1cc([N+](=O)[O-])cc([N+](=O)[O-])c1` [6o, 3,5-Dinitro-N-(4-oxo-4H-chromen-2-yl) benzamide], the melting point came out at 291 °C. Further, testing at 50 µM in data set [1] gave an inhibition of 78.3 ± 4%.

Turning to `O=C(CN1CCN(C(=O)c2cc(=O)c3ccccc3o2)CC1)N1CCCC1` [3′i, 2-(4-(2-Oxo-2-(pyrrolidin-1-yl)ethyl)piperazine-1-carbonyl)-4H-chromen-4-one], the melting point is 117 °C. In data set [1], 50 µM produced 10.8 ± 0.4% inhibition.

As for `O=C(Nc1cc(=O)c2ccccc2o1)C1CCCCC1` [6x, N-(4-Oxo-4H-chromen-2-yl)cyclohexanecarboxamide], the melting point came out at 241 °C. For the same compound, the inhibition at 50 µM in data set [1] was 48.7 ± 5.3%.

`O=C(Nc1cc(=O)c2ccccc2o1)c1ccc(Br)cc1` [6g, 4-Bromo-N-(4-oxo-4H-chromen-2-yl) benzamide] gave a melting point of 287 °C. Further, in data set [1], the inhibition at 50 µM is 56.2 ± 7.9%.

Turning to `O=C(Nc1cc(=O)c2ccccc2o1)c1ccccc1` [6a, N-(4-Oxo-4H-chromen-2-yl) benzamide], the melting point worked out at 218 °C. In data set [1], this compound came in with an inhibition at 50 µM of 73.6 ± 6.1%.

In turn, `O=C(Nc1cc(=O)c2ccccc2o1)c1ccccc1F` [6h, 2-Fluoro-N-(4-oxo-4H-chromen-2-yl) benzamide] registered a melting point of 194 °C. Further, testing at 50 µM in data set [1] gave an inhibition of 27.8 ± 10.7%.

`CCc1ccc(NC(=O)c2cc(=O)c3ccccc3o2)cc1` [3c, N-(4-Ethylphenyl)-4-oxo-4H-chromene-2-carboxamide] showed a melting point of 179 °C. In data set [1], this compound had an inhibition at 50 µM of 43.3 ± 7.2%.

Turning to `CSc1ccccc1NC(=O)c1cc(=O)c2ccccc2o1` [3r, N-(2-(Methylthio)phenyl)-4-oxo-4H-chromene-2-carboxamide], the melting point was found to be 163 °C. In data set [1], testing at 50 µM gave an inhibition of 47.8 ± 5.7%.

For the compound `COc1ccc(C(=O)Nc2cc(=O)c3ccccc3o2)cc1` [6p, 4-Methoxy-N-(4-oxo-4H-chromen-2-yl) benzamide], the melting point worked out at 227 °C. In data set [1], this compound came in with an inhibition at 50 µM of 39.3 ± 17.1%.

Regarding `CC(C)(C)OC(=O)N1CCC(CNC(=O)c2cc(=O)c3ccccc3o2)CC1` [3′e, Tert-butyl 4-((4-oxo-4H-chromene-2-carboxamido)methyl)piperidine-1-carboxylate], the melting point was found to be 129 °C. This compound also registered an inhibition at 50 µM in data set [1] of 36 ± 28.6%.

In turn, `CCc1ccc(C(=O)Nc2cc(=O)c3ccccc3o2)cc1` [6c, 4-Ethyl-N-(4-oxo-4H-chromen-2-yl) benzamide] returned a melting point of 237 °C. In data set [1], this compound gave an inhibition at 50 µM of 63.1 ± 3%.

For `O=C(NC12CC3CC(CC(C3)C1)C2)c1cc(=O)c2ccccc2o1` [3y, N-((3S,5S,7S)-Adamantan-1-yl)-4-oxo-4H-chromene-2-carboxamide], the melting point came to 201 °C. This compound came in with an inhibition at 50 µM in data set [1] of 24.4 ± 8.8%.

Regarding `O=C(Nc1ccc(Cn2ccnc2)cc1)c1cc(=O)c2ccccc2o1` [3′d, N-(4-((1H-Imidazol-1-yl)methyl)phenyl)-4-oxo-4H-chromene-2-carboxamide], the melting point was 261 °C. Also, the inhibition at 50 µM in data set [1] is < 10%.

Consider `O=C(Nc1ccc([N+](=O)[O-])cc1)c1cc(=O)c2ccccc2o1` [3m, N-(4-Nitrophenyl)-4-oxo-4H-chromene-2-carboxamide], for which the melting point is 307 °C. In data set [1], this compound gave an inhibition at 50 µM of 58.7 ± 2.5%.

Compound `O=C(Nc1cc(=O)c2ccccc2o1)c1ccc(F)c(Cl)c1` [6l, 3-Chloro-4-fluoro-N-(4-oxo-4H-chromen-2-yl) benzamide] registered a melting point of 224 °C. Further, at 50 µM the inhibition in data set [1] was 67.2 ± 5.2%.

In turn, `O=C(Nc1cc(=O)c2ccccc2o1)c1ccccc1Br` [6j, 2-Bromo-N-(4-oxo-4H-chromen-2-yl) benzamide] yielded a melting point of 215 to 218 °C. In data set [1], at 50 µM the inhibition was 36.1 ± 4.1%.

In the case of `O=C(Nc1ccc(Cl)cc1)c1cc(=O)c2ccccc2o1` [3f, N-(4-Chlorophenyl)-4-oxo-4H-chromene-2-carboxamide], the melting point was found to be 265 °C. Also, the inhibition at 50 µM in data set [1] was 25.9 ± 4.3%.
